Reference: paper PMC4320596, “Cytotoxicity effect of degraded and undegraded kappa and iota carrageenan in human intestine and liver cell lines” (BMC Complementary and Alternative Medicine, 2014)
“Also recorded” adds a separate entry of the source.

What was measured:
Format in all cases: cell-based, human
[1] = tested on: PCNA, MKI67 and survivin gene expression in HepG2 cells; assay: RT-PCR gene expression analysis, HepG2; conditions: 72 h, degraded and tamoxifen at IC50, undegraded at 2000 μg mL^−1
Description: Reverse transcription polymerase chain reaction (RT-PCR) was used to analyze the presence of transcribed mRNA for cell proliferation gene marker. […] The extracted RNA was dissolved in DEPC-treated water. The RNA concentration and sample purity was determined using spectrophotometer (Bio Photometer plus, Eppendorf). Two steps RT-PCR were conducted where 1 μg of total RNA was used in the first strand cDNA synthesis using RevertAid First Strand cDNA Synthesis Kit (ThermoScientific, USA). Subsequent PCR reaction was done utilizing Mastercyler Gradient (Eppendorf, Germany). The expression of cell proliferation markers, e.g. PCNA, MKI67 and BIRC5 or known as survivin were analyzed with GAPDH gene acting as the endogenous control. […] PCR amplification were under the following conditions: initial denaturation at 95°C for 2 min, denaturation at 95°C for 1 min, primer annealing as stated in Table 1, extension at 72°C for 45 second, and final extension at 72°C for 5 min. […] The separated DNA fragments were visualized by ethidium bromide staining and photographed using the Alpha Imaging System (Alpha Innotech, San Leandro, CA, USA) under UV transillumination.

HepG2 cells [2] = assay: DNA fragmentation by agarose gel electrophoresis, HepG2; conditions: 1% agarose gel
Description: Caco-2 and HepG2 cells treated with degraded FGKC, DKC and CGKC were lysed with lysis buffer (10 mM Tris–HCl, 5 mM EDTA, […], 0.2% SDS) and incubated at 60°C for 5 min. The RNA in each sample was digested with 10 μL of RNase at 37°C for 1 hour, and proteinase K (more than 3 U uL^−1) was added before incubating at 50°C for an additional 1.5 h. NaCl (5 M) was then added, and the samples were incubated on ice for 5 min to precipitate the protein. The cells were centrifuged for 15 min at highest speed at 4°C, after which supernatant was collected, and an equal volume of isopropanol was added to precipitate the DNA. Then, each sample was centrifuged again at 10,000 g for 10 min at 4°C. Supernatants were discarded, and the pellets were washed with 70% cold ethanol. The DNA sample was left to dry at room temperature before adding 1× TE buffer. Electrophoresis was carried out in a 1.0% (w/v) agarose gel for 1.5 h at 70 V. The gel was examined under UV transillumination following ethidium bromide staining to determine the extent of apoptotic DNA fragmentation.

HepG2 cells [3] = assay: Morphological observation under an inverted microscope, HepG2; conditions: 72 h; degraded and TAM at 72 h IC50, undegraded at highest concentration
Description: (§1) Approximately 2×10^5 cells were seeded in 2 mL of culture medium in 6-well plates (BD Labware, England) and incubated with 5% CO2 at 37°C for 24 h. The cells were then treated with degraded FGKC, DKC and CGKC at the appropriate concentrations to produce 50% cell viability at 72 hours as pre-determined by the MTT assay. For undegraded carrageenan, the highest concentration with longest treatment period (72 hours) was used to test on the cells. […] The morphology of the treated cells was observed under an inverted microscope at 200× magnification. The observed morphology was compared to the morphology of untreated cells.

Fa2N-4 cells = assay: Morphological observation under an inverted microscope, Fa2N-4; conditions: 72 h; degraded and TAM at 72 h IC50, undegraded at highest concentration
Description: as §1

FHs 74 Int cells = assay: Morphological observation under an inverted microscope, FHs 74 Int; conditions: 72 h; degraded and TAM at 72 h IC50, undegraded at highest concentration
Description: as §1

HepG2 cells [4] = assay: Acridine orange-ethidium bromide (AO/EtBr) staining, HepG2; conditions: 72 h; degraded k-carrageenan
Description: After the cells were harvested by trypsinisation, they were washed with PBS. A 25 μL sample of cells was stained with 10 μL of a mixture (1:1) of acridine orange and ethidium bromide solution. The concentration of AO/EtBr are […] in 1× PBS. After staining, the cells were viewed under a fluorescence microscope at 200× magnification (Leica DM 2500).

CC/C(=C(\c1ccccc1)c1ccc(OCCN(C)C)cc1)c1ccccc1 [TAM, Tamoxifen]
MKI67 gene expression, HepG2 [1]: lower than control; also recorded: undetectably low
PCNA gene expression, HepG2 [1]: lower than control
survivin gene expression, HepG2 [1]: lower than control; also recorded: not expressed
DNA fragmentation (DNA ladder), HepG2 (HepG2 cells [2]): fragmented
Cell morphology before staining, HepG2 (HepG2 cells [3]): cell shrinkage
Cell morphology before staining, Fa2N-4 (Fa2N-4 cells): cell shrinkage
Cell morphology before staining, FHs 74 Int (FHs 74 Int cells): cell shrinkage
Mode of cell death by AO/EtBr staining, HepG2 (HepG2 cells [4]): showed apoptosis
